Test systems include UACC-257 melanoma; SF-268 CNS; HCT-15 colon; PC-3 prostate; SF-295 CNS; A498 renal; RPMI-8226 leukemia; K-562 leukemia; UACC-62 melanoma; HOP-62 NSCLC.
Experiment in all cases: NCI anticancer screen, dose series, 48 h

Structures are written as SMILES.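 Method: 48-hour compound exposure of cells in 96-well plates, five concentrations, linear interpolation of endpoints. At the GI50, growth is halved. TGI is the concentration that stops growth completely.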 A value given as a limit tells only on which side of the number the result lay.

Turning to `Fc1ccc(Nc2ccnc(N3CCN(c4ccnc5cc(Cl)ccc45)CC3)n2)cc1`, the GI50 in the assay on UACC-257 melanoma is 1.95 µM; in the assay on SF-268 CNS it was 3.67 µM; in the assay on HCT-15 colon it was 2.3 µM; in the assay with PC-3 prostate, 1.73 µM; in the assay with SF-295 CNS, 1.33 µM; in the assay on A498 renal, 1.81 µM. Further, the GI50 was 2.19 µM in the assay on RPMI-8226 leukemia, 2.18 µM with K-562 leukemia, 1.73 µM in the assay with UACC-62 melanoma and 3.83 µM in the assay with HOP-62 NSCLC. Moreover, the TGI was found to be 4.27 µM with UACC-257 melanoma; 40.3 µM in the assay on SF-268 CNS; 7.93 µM in the assay on HCT-15 colon; 8.33 µM in the assay on PC-3 prostate; 3.2 µM in the assay with SF-295 CNS; 9.61 µM with A498 renal. In addition, the TGI in the assay with RPMI-8226 leukemia was 6.22 µM; with K-562 leukemia, 6.62 µM; with UACC-62 melanoma, 4.53 µM; in the assay with HOP-62 NSCLC, 65.4 µM.

Take `Cc1ccccc1N=C(c1ccccc1)C1C(=O)c2ccccc2C1=O`: the GI50 in the assay with UACC-257 melanoma was 18 µM; in the assay with SF-268 CNS, 13.3 µM; with HCT-15 colon it was 11.3 µM; with PC-3 prostate, 18.9 µM; in the assay on SF-295 CNS it was 13.8 µM; in the assay with A498 renal, 24.4 µM. Further, the GI50 with RPMI-8226 leukemia is 4.27 µM; in the assay with K-562 leukemia it was 25.6 µM; with UACC-62 melanoma, 11.6 µM; in the assay on HOP-62 NSCLC, 18.2 µM. Moreover, the TGI in the assay with UACC-257 melanoma was 96.6 µM; with SF-268 CNS it was 40.2 µM; with HCT-15 colon it was 73 µM; in the assay on PC-3 prostate, 62 µM; in the assay on SF-295 CNS, 36.5 µM; in the assay on A498 renal it was more than 100 µM. In addition, the TGI was 27 µM in the assay with RPMI-8226 leukemia, more than 100 µM with K-562 leukemia, 30.7 µM in the assay on UACC-62 melanoma and 63.9 µM in the assay on HOP-62 NSCLC.

On to `Cc1cc(C2CC(O)C(CO)O2)c(Br)cc1Br` (stereo not given), for which the GI50 is more than 100 µM in the assay on UACC-257 melanoma; more than 100 µM in the assay with SF-268 CNS; more than 100 µM in the assay with HCT-15 colon; more than 100 µM in the assay with PC-3 prostate; more than 100 µM with SF-295 CNS; 36.7 µM in the assay with A498 renal. For the same compound, the GI50 with RPMI-8226 leukemia is 85.8 µM; in the assay with K-562 leukemia it was more than 100 µM; with UACC-62 melanoma, 49.7 µM; in the assay on HOP-62 NSCLC it was more than 100 µM. The TGI in the assay on UACC-257 melanoma, with SF-268 CNS, with HCT-15 colon, with PC-3 prostate, in the assay with SF-295 CNS and in the assay with A498 renal was more than 100 µM in each case. Besides, the TGI in the assay on RPMI-8226 leukemia, with K-562 leukemia, in the assay with UACC-62 melanoma and in the assay on HOP-62 NSCLC was more than 100 µM each time.

Regarding `CC(C)Cc1cc(-c2cccn2C)c(C#N)c(=O)[nH]1`, the GI50 with UACC-257 melanoma, in the assay with SF-268 CNS, in the assay with HCT-15 colon, in the assay on PC-3 prostate, in the assay on SF-295 CNS and with A498 renal was more than 100 µM each time. Moreover, the GI50 with RPMI-8226 leukemia, with K-562 leukemia, with UACC-62 melanoma and in the assay on HOP-62 NSCLC was more than 100 µM each time. The TGI with UACC-257 melanoma, in the assay with SF-268 CNS, with HCT-15 colon, in the assay on PC-3 prostate, in the assay on SF-295 CNS and with A498 renal was more than 100 µM throughout. The TGI in the assay on RPMI-8226 leukemia, in the assay with K-562 leukemia, in the assay with UACC-62 melanoma and in the assay on HOP-62 NSCLC was more than 100 µM throughout.

The values are drawn from PubChem BioAssay (NCI).
